Earlier results as cited in US9012511B2, “Nanoparticulate cinacalcet compositions” (Alkermes Pharma Ireland Limited, priority 2010, dated 2015).
Like-named read-outs stand apart in the source and are kept apart here.

How the values were obtained:
[1] = fasted subjects; estimated

For `C[C@@H](NCCCc1cccc(C(F)(F)F)c1)c1cccc2ccccc12.Cl` [Cinacalcet HCl, Cinacalcet hydrochloride], the mean tmax (fasting subjects) is listed as 6 h, the mean tmax (high-fat fed subjects) is listed as 4 h and the mean tmax (low-fat fed subjects) is listed as 3.5 h. For the same molecule, the “difference in mean AUC∞ between high- and low-fat meals” value (single oral dose 90 mg) was 12 (9.9-26) %, the “mean (90% confidence intervals) AUC[infinity] increase relative to fasting” value (single oral dose 90 mg, high-fat, high-caloric meal) was 68 (48 to 89) % and the “mean (90% confidence intervals) AUC[infinity] increase relative to fasting” value (single oral dose 90 mg, low-fat, low-caloric meal) was 50 (33 to 70) %. For the same molecule, the absolute bioavailability [1] was 20-25%.
